Data taken from patent publication US8883801B2, “Substituted pyrazolo[1,5-a]pyrimidines as mTOR inhibitors” (Merck Sharp & Dohme Corp., priority 2010, dated 2014).

Columns and labels:
human mTOR enzyme = human mTOR enzyme (Homo sapiens, UniProt P42345); assay: HTRF mTOR enzyme (kinase) assay; type: biochemical; conditions: rated class; 5 μM ATP, 0.2 μM GST-S6K; read-out: hMTOR IC50
[1] = system: mTORC2 activity: phosphorylated AKT Ser473 (pAKT S473) in PC3 cells; assay: mTOR target engagement assay, immunofluorescent cell-based, mTORC2 readout; conditions: Homo sapiens, PC-3, 1.5 h, rated class, 90 min treatment
In short: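 Read-out is immunofluorescence intensity, normalized to DMSO-only wells and fitted to a sigmoidal Hill equation for IC50. The mTORC1 arm probes phospho-4E-BP1 Thr37/46 and the mTORC2 arm phospho-AKT Ser473.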

[2] = system: mTORC1 activity: phosphorylated 4E-BP1 Thr37/46 (p4E-BP1 Thr37/46) in PC3 cells; assay: mTOR target engagement assay, immunofluorescent cell-based, mTORC1 readout; conditions: Homo sapiens, PC-3, 1.5 h, rated class, 90 min treatment, read-out: P4EBP1 IC50
Procedure: The target engagement of mTOR kinase inhibitors was evaluated using an immunofluorescent cell-based assay. In this assay, inhibition of mTORC1 activity was measured by the reduction in the level of phosphorylated 4E-BP1Thr37/46 (p4E-BP1 Thr37/46), and inhibition of mTORC2 activity was measured by the reduction of phosphorylated AKTSer473 (pAKT S473).
PC3 cells (prostate tumor cell-line that contains a mutation in the tumor suppressor PTEN, that promotes the phosphorylation and activation of AKT and 4E-BP1) were used in the immunofluorescence assay. PC3 cells were seeded on 384 well plates (black clear bottom, Matrix #4332) overnight. PC3 cells were then treated with 40 μl of the serially diluted test compounds (in 5% fetal bovine serum, F12 medium containing 0.25% DMSO) for ninety minutes at 37° C. The test compound solution was removed, and the plates were washed gently two times with 25 μl phosphate buffered saline (PBS). The cells were fixed by adding 25 μl of Prefer reagent (from Anatech LTD, Cat#414, a glyoxal fixative for fixing proteins within a cell) for sixty minutes followed by three washes with PBS. 5% Goat serum in PBS/0.3% Triton was used to block non-specific binding (60 minutes).
The primary antibodies targeting pAKT S473 and p4E-BP1 Thr37/46 were diluted into PBS/0.3% Triton and incubated with the cells overnight at 4° C. The antibodies targeting pAKTS473 (Cat#4085, Cell signaling) and p4E-BP1 Thr37/46 (Cat#2855, Cell signaling) were used at a 1:100 dilution. Plates were washed three times with PBS/0.1% Tween 20 before adding the secondary antibody at a 1:200 dilution. (goat anti-rabbit containing a fluorescent label, Alexa Fluor 488, Cat#A11008, Invitrogen) in PBS/0.3% Triton for 60 minutes.
Finally, the plates were washed three times with PBS/0.1% Tween 20 and the fluorescent intensity was read using an Analyst HT from Molecular Devices. The fluorescent intensity values from the serially diluted compound treatment group were analyzed using the Xlfit 4 program ([…]) (Formula 205: Y=Bottom+(Top-Bottom)/(1+(IC50/X)^Hillslope) to generate the IC50 value. Where Top is the maximum signal without Compound (+DMSO only) and Bottom represents maximum inhibition. Y is the fluorescence at some compound concentration. The control used to determine the fluorescent intensities for 100% pAKT S473 or 100% phosphorylated p4E-BP1 Thr37/46 were measured from untreated wells that contained only DMSO, instead of test compound.

human mTOR enzyme, sequence (P42345 1360-2549 limits assumed): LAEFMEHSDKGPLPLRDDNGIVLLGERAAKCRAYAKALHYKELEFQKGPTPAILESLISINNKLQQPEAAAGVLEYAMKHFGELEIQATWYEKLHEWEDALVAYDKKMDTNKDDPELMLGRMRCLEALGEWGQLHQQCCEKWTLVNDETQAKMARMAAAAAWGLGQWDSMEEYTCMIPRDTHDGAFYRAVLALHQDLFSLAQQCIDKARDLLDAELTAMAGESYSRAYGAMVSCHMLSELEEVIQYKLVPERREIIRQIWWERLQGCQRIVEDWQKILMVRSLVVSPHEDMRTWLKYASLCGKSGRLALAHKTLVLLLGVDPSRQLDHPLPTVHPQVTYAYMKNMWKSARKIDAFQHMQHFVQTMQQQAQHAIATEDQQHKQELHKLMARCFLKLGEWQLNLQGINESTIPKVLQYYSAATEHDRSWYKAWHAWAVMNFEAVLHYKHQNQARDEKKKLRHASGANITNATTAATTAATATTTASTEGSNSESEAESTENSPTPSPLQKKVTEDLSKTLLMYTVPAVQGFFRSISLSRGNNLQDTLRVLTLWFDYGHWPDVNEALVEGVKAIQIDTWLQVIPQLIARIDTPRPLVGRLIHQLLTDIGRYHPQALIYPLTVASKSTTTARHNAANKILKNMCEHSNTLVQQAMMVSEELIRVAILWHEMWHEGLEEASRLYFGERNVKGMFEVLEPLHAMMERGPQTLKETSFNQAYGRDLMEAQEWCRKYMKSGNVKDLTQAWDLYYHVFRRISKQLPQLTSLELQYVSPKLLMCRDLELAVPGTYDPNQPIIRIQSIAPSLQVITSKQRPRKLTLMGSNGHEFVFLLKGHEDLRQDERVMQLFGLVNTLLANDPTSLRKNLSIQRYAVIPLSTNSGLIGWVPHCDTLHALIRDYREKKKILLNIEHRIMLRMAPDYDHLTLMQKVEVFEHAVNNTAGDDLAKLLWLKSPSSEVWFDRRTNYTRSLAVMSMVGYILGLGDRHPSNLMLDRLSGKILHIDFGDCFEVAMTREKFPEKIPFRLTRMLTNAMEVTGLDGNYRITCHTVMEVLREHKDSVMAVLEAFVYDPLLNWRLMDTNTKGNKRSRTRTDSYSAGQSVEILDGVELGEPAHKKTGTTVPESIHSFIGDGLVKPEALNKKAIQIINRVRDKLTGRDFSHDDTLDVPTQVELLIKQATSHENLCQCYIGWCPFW

SMILES | IC50 (human mTOR enzyme) [nM] | IC50 [1] [nM] | IC50 [2] [nM]
CO[C@]1(C(=O)O)CC[C@H](c2nc3c(-c4ccc(-c5ccccc5)nc4)cnn3c(N)c2C(C)=O)CC1 [Compound 34, (1S,4S)-4-(6-acetyl-7-amino-3-(6-phenylpyridin-3-yl)pyrazolo[1,5-a]pyrimidin-5-yl)-1-methoxycyclohexanecarboxylic acid] | 1 to 100 | 100 to 1000 | 100 to 1000
CO[C@]1(C(=O)O)CC[C@@H](c2nc3c(-c4ccc(-c5ccccc5)nc4)cnn3c(N)c2C(C)=O)CC1 [Compound 35, (1R,4R)-4-(6-acetyl-7-amino-3-(6-phenylpyridin-3-yl)pyrazolo[1,5-a]pyrimidin-5-yl)-1-methoxycyclohexane-carboxylic acid] | 1 to 100 | 1 to 100 | 100 to 1000
CO[C@]1(C(=O)O)CC[C@@H](c2nc3c(-c4cnn(-c5ccccc5)c4)cnn3c(N)c2C(C)=O)CC1 [Compound 36, (1R,4R)-4-(6-acetyl-7-amino-3-(1-phenyl-1H-pyrazol-4-yl)pyrazolo[1,5-a]pyrimidin-5-yl)-1-methoxycyclohexane-carboxylic acid] | 1 to 100 | 1 to 100 | 100 to 1000
CO[C@]1(C(=O)O)CC[C@H](c2nc3c(-c4cnn(-c5ccccc5)c4)cnn3c(N)c2C(C)=O)CC1 [Compound 37, (1S,4S)-4-(6-acetyl-7-amino-3-(1-phenyl-1H-pyrazol-4-yl)pyrazolo[1,5-a]pyrimidin-5-yl)-1-methoxycyclohexane-carboxylic acid] | 1 to 100 | 1 to 100 | 100 to 1000
COCCO[C@]1(C(=O)O)CC[C@@H](c2nc3c(-c4cnn(-c5ccccc5)c4)cnn3c(N)c2S(C)(=O)=O)CC1 [Compound 40, (1R,4R)-4-(7-amino-6-(methylsulfonyl)-3-(1-phenyl-1H-pyrazol-4-yl)pyrazolo[1,5-a]pyrimidin-5-yl)-1-(2-methoxyethoxy)cyclohexanecarboxylic acid] | 1 to 100 | 1 to 100 | 100 to 1000
COCCO[C@]1(C(=O)O)CC[C@H](c2nc3c(-c4cnn(-c5ccccc5)c4)cnn3c(N)c2S(C)(=O)=O)CC1 [Compound 41, (1S,4S)-4-(7-amino-6-(methylsulfonyl)-3-(1-phenyl-1H-pyrazol-4-yl)pyrazolo[1,5-a]pyrimidin-5-yl)-1-(2-methoxyethoxy)-cyclohexanecarboxylic acid] | 1 to 100 | 5000 to 15000 | 5000 to 15000
COCCO[C@]1(C(=O)O)CC[C@@H](c2nc3c(-c4cnc(-c5ccccc5)nc4)cnn3c(N)c2S(C)(=O)=O)CC1 [Compound 46, (1R,4R)-4-(7-amino-6-(methylsulfonyl)-3-(2-phenylpyrimidin-5-yl)pyrazolo[1,5-a]pyrimidin-5-yl)-1-(2-methoxyethoxy) cyclohexanecarboxylic acid] | 1 to 100 | 5000 to 15000 | 5000 to 15000
COCCO[C@]1(C(=O)O)CC[C@@H](c2nc3c(-c4cnc(-c5ncc(C)s5)nc4)cnn3c(N)c2S(C)(=O)=O)CC1 [Compound 51, (1R,4R)-4-(7-amino-6-(methylsulfonyl)-3-(2-(5-methylthiazol-2-yl)pyrimidin-5-yl)pyrazolo[1,5-a]pyrimidin-5-yl)-1-(2-methoxyethoxy) cyclohexanecarboxylic acid] | 1 to 100 | 100 to 1000 | 1000 to 2000
COCCO[C@]1(C(=O)O)CC[C@@H](c2nc3c(-c4ccc(-c5ccccc5)nc4)cnn3c(N)c2Br)CC1 [Compound 64, (1R,4R)-4-(7-amino-6-bromo-3-(6-phenylpyridin-3-yl)pyrazolo[1,5-a]pyrimidin-5-yl)-1-(2-methoxyethoxy)cyclohexanecarboxylic acid] | 1 to 100 | 100 to 1000 | 100 to 1000
Nc1c(Br)c([C@H]2CC[C@@](OCCN3CCOCC3)(C(=O)O)CC2)nc2c(-c3cnn(-c4ccccc4)c3)cnn12 [Compound 67, (1R,4R)-4-(7-amino-6-bromo-3-(1-phenyl-1H-pyrazol-4-yl)pyrazolo[1,5-a]pyrimidin-5-yl)-1-(2-morpholinoethoxy) cyclohexanecarboxylic acid] | 1 to 100 | 100 to 1000 | 100 to 1000

Second part, the compound after the results:

IC50 (human mTOR enzyme) [nM] | IC50 [1] [nM] | IC50 [2] [nM] | SMILES
1 to 100 | 2000 to 5000 | 5000 to 15000 | COCCO[C@]1(C(=O)O)CC[C@@H](c2nc3c(-c4ccc(-c5ccn(C)n5)nc4)cnn3c(N)c2S(C)(=O)=O)CC1 [Compound 42, (1R,4R)-4-(7-amino-3-(6-(1-methyl-1H-pyrazol-3-yl)pyridin-3-yl)-6-(methylsulfonyl)-pyrazolo[1,5-a]-pyrimidin-5-yl)-1-(2-methoxyethoxy)-cyclohexanecarboxylic acid]
1 to 100 | 100 to 1000 | 100 to 1000 | COCCO[C@]1(C(=O)O)CC[C@@H](c2nc3c(-c4cnn(-c5ccc(F)cc5)c4)cnn3c(N)c2S(C)(=O)=O)CC1 [Compound 43, (1R,4R)-4-(7-amino-3-(1-(4-fluorophenyl)-1H-pyrazol-4-yl)-6-(methylsulfonyl)-pyrazolo[1,5-a]-pyrimidin-5-yl)-1-(2-methoxyethoxy)-cyclohexanecarboxylic acid]
1 to 100 | 100 to 1000 | 100 to 1000 | COCCO[C@]1(C(=O)O)CC[C@@H](c2nc3c(-c4ccc(-c5ccccc5)nc4)cnn3c(N)c2S(C)(=O)=O)CC1 [Compound 44, (1R,4R)-4-(7-amino-6-(methylsulfonyl)-3-(6-phenylpyridin-3-yl)pyrazolo[1,5-a]pyrimidin-5-yl)-1-(2-methoxyethoxy) cyclohexanecarboxylic acid]
1 to 100 | 2000 to 5000 | 2000 to 5000 | COCCO[C@]1(C(=O)O)CC[C@@H](c2nc3c(-c4ccc(-c5nccs5)nc4)cnn3c(N)c2S(C)(=O)=O)CC1 [Compound 47, (1R,4R)-4-(7-amino-6-(methylsulfonyl)-3-(6-(thiazol-2-yl)pyridin-3-yl)pyrazolo[1,5-a]pyrimidin-5-yl)-1-(2-methoxyethoxy) cyclohexanecarboxylic acid]
1 to 100 | 5000 to 15000 | 5000 to 15000 | COCCO[C@]1(C(=O)O)CC[C@@H](c2nc3c(-c4ccc(-c5ccc(O)c(F)c5)nc4)cnn3c(N)c2S(C)(=O)=O)CC1 [Compound 48, (1R,4R)-4-(7-amino-3-(6-(3-fluoro-4-hydroxyphenyl)pyridin-3-yl)-6-(methylsulfonyl)-pyrazolo[1,5-a]-pyrimidin-5-yl)-1-(2-methoxyethoxy)-cyclohexanecarboxylic acid]
1 to 100 | 100 to 1000 | 100 to 1000 | COCCO[C@]1(C(=O)O)CC[C@@H](c2nc3c(-c4ccc(-c5ccccn5)nc4)cnn3c(N)c2S(C)(=O)=O)CC1 [Compound 50, (1R,4R)-4-(3-(2,2′-bipyridin-5-yl)-7-amino-6-(methylsulfonyl)-pyrazolo[1,5-a]-pyrimidin-5-yl)-1-(2-methoxyethoxy)-cyclohexanecarboxylic acid]
1 to 100 | 100 to 1000 | 100 to 1000 | COCCO[C@]1(C(=O)O)CC[C@@H](c2nc3c(-c4cnc5ccc(F)cc5c4)cnn3c(N)c2S(C)(=O)=O)CC1 [Compound 52, (1R,4R)-4-(7-amino-3-(6-fluoroquinolin-3-yl)-6-(methylsulfonyl)-pyrazolo[1,5-a]-pyrimidin-5-yl)-1-(2-methoxyethoxy)-cyclohexanecarboxylic acid]
